{"source": "patent EP1285919A1", "about": "“C10 Carbonate substituted taxanes as antitumor agents” (Florida State University Research Foundation, Inc., priority 2001, dated 2003)", "key": {"[1]": {"system": "NCI-H1299 (H1299) carcinoma", "description": "(§1) In Vivo Evaluation of Antitumor Compounds Against Human Lung Carcinoma Xenografts\n(§2) The compounds were prepared in the manner as described for Solution 2 of Example 10. Taxol (paclitaxel, Bristol Meyers Squibb), used as a control, was obtained as the marketed pharmaceutical drug.\n(§3) Taxol itself was given as a split i.v. dose of 36 mg/kg, with the two 18 mg/kg doses separated by one hour. Vehicle control animals were dosed twice intravenously with half the total volume being given separated by one hour. The study was terminated on Day 60.\n(§4) The results are summarized in Table 1 and include mean days of survival (MDS), number of toxic deaths, number of survivors, number of complete or partial responses, and number with stable disease. The mean days of survival is the number of days after which a SKMES neoplasm reached a size of 1.5 g and the animal was euthanized. A complete response is obtained if the tumor is not palpable at the end of the study. A partial response is obtained if the tumor shrinks to a size smaller than its size on Day 1 of the study.\n(§5) A tumor scoring system was designed to provide a more quantitative ranking of efficacy (therapeutic potential) among the antitumor agents evaluated against the different human solid tumor xenografts. Each mouse in a study was given a score of from 1 to 10 at the end of the study. The scores can be summarized as follows:\n(§6) The individual score for each mouse was averaged into a mean score for each treatment group. […]\nThe treatment protocol for the H1299 test was identical to the SK-MES test protocol. […]"}, "[2]": {"system": "SK-MES carcinoma", "description": "as §1, §2, §3, §4, §5, §6"}, "[3]": {"system": "SKMES Human Lung Carcinoma Xenograft", "description": "The compound was administered as a single bolus by the oral route in a study to investigate the efficacy of this compound against the SKMES human lung cancer xenograft.\nFemale Nu/Nu mice (6-8 weeks of age; implanted with 1 mm^3 SKMES lung carcinoma fragments in the flank) were sorted into four treatment groups of six mice each. SKMES size ranges and group mean SKMES size ranges were 126-448 mg and 238-241 mg, respectively. […] Treatments were administered as a single oral bolus on Day 1, and the study was terminated on Day 60.\nas §4, with “Table 13” for “Table 1”, “of 2.0” for “of 1.5”\nThe total response rate was 100% with four complete responses and two partial responses. The total response rate is defined as the percentage of evaluable animals (excluding deaths due to procedure or toxicity) in a group that experience complete or partial responses at the termination of the study."}, "[4]": {"system": "HCT116", "assay": "In vitro cytotoxicity, cell colony formation assay", "format": "cell-based", "conditions": "read-out: IN VITRO ID 50", "description": "In Vitro cytotoxicity measured by the cell colony formation assay\nFour hundred cells (HCT116) were plated in 60 mm Petri dishes containing 2.7 mL of medium (modified McCoy's 5a medium containing 10% fetal bovine serum and 100 units/mL penicillin and […] streptomycin). The cells were incubated in a CO2 incubator at 37 °C for 5 h for attachment to the bottom of Petri dishes. The compounds identified in Example 2 were made up fresh in medium at ten times the final concentration, and then 0.3 mL of this stock solution was added to the 2.7 mL of medium in the dish. The cells were then incubated with drugs for 72 h at 37 ° C. At the end of incubation the drug-containing media were decanted, the dishes were rinsed with 4 mL of Hank's Balance Salt Solution (HBSS), 5 mL of fresh medium was added, and the dishes were returned to the incubator for colony formation. The cell colonies were counted using a colony counter after incubation for 7 days."}, "[5]": {"system": "A375 Human Melanoma Xenografts", "assay": "In vivo evaluation against A375 melanoma xenografts", "description": "In Vivo Evaluation of Antitumor Compounds Against A375 Human Melanoma Xenografts\nAntitumor compounds were prepared in a vehicle of 5% ethanol, 5% Cremophor and 90% isotonic saline in the manner as described for Solution 1 of Example 10. Taxol (paclitaxel; Bristol Meyers Squibb) and Taxotere (docetaxel; Rhône-Poulenc Rorer) were obtained as the marketed pharmaceutical drugs. The dosing volume was 0.3 ml per 20 g mouse.\nFemale NCr-nude mice were implanted subcutaneously with 1 mm^3 A375 melanoma fragments in the flank were sorted into treatment groups of six mice each, except the Taxotere treatment group which was a group of seven mice. […] Dosing was initiated on Day 1. The antitumor compounds were given i.v. at an estimated maximum tolerated dose (MTD) appropriate for each agent on a qd x 1 schedule (single administration of compound). The i.v. taxol was given on the qd x 1 schedule as two split doses (one hour between) of 12 mg/kg per split dose (total dose = 24 mg/kg). Taxol was also administered i.p. on a qd x 5 schedule at a daily dose of 18 mg/kg. Taxotere was given i.v. on a qd x 1 schedule at a dose of 70 mg/kg. The vehicle was administered i.v. to control mice in Group 1 on the qd x 1 schedule. The study was terminated on Day 60. Treatment groups are detailed in Table 7.\nas §4, with “Table 8” for “Table 1”, “a” for “a SKMES”, “of 2.0” for “of 1.5”, “complete” for “complete response is obtained if the tumor is not palpable at the end of the study. A partial”"}, "[6]": {"system": "VM46 Human Colon Carcinoma", "assay": "In vivo evaluation against VM46 colon carcinoma xenografts", "design": "species or system NCr-nude mice", "description": "In Vivo Evaluation of Antitumor Compounds Against VM46 Human Colon Carcinoma\nThe VM46 tumor group mean size range was 181-188 mg. Dosing was initiated on Day 1. […] Taxotere was given i.v. at a dose of 70 mg/kg on a qd x 1 schedule. […] The study was terminated on Day 64. Treatment groups are detailed in Table 11."}, "[7]": {"system": "A2780 Human Ovarian Carcinoma Xenografts", "assay": "In vivo evaluation against A2780 ovarian carcinoma xenografts", "design": "species or system NCr-nude mice", "description": "In Vivo Evaluation of Antitumor Compounds Against A2780 Human Ovarian Carcinoma Xenografts\nThe A2780 group mean size range was 237-243 mg. Dosing was initiated on Day 1. […] Treatment groups are detailed in Table 5."}, "[8]": {"conditions": "number of mice of six, i.v. split dose qd x 1, Taxol 36 mg/kg, 1755 49 mg/kg"}, "[9]": {"conditions": "1755 49 mg/kg single oral bolus, six mice"}, "[10]": {"conditions": "Group 4: 49 mg/kg single oral bolus Day 1, 6 mice, study to Day 60"}, "[11]": {"conditions": "HCT116, 72 h with drug, colonies counted after 7 days, concentration producing 50% inhibition of colony formation"}, "[12]": {"conditions": "Group 5: 70 mg/kg i.v. qd x 1, 7 mice, study to Day 60"}, "[13]": {"conditions": "i.v. qd x 1, Taxol 24 mg/kg, Taxotere 70 mg/kg"}, "[14]": {"conditions": "i.v. qd x 1, Taxol 24 mg/kg, Taxotere 70 mg/kg, 2.0 g cut-off"}, "[15]": {"conditions": "Group 5: 70 mg/kg i.v. qd x 1, 6 mice, study to Day 64"}, "[16]": {"conditions": "Group 5: 70 mg/kg i.v. qd x 1, group of six mice, study to Day 60"}}, "note": "Like-named read-outs stand apart in the source and are kept apart here."}
{"molecule": "CCOC(=O)OC1C(=O)C2(C)C(O)CC3OCC3(OC(C)=O)C2C(OC(=O)c2ccccc2)C2(O)CC(OC(=O)C(O)C(NC(=O)OC(C)(C)C)c3cccs3)C(C)=C1C2(C)C", "note": "(stereo not shown) [Compound 1755, 3'-Desphenyl-3'-(2-thienyl)-10-ethoxycarbonyl-10-deacetyl taxotere]", "values": [{"measurement": "Partial Response", "setting": "[1]; number of mice of six", "result": 0}, {"measurement": "Stable Disease", "setting": "[1]; number of mice of six", "result": 1}, {"measurement": "Survivors", "setting": "[1]; number of mice of six", "result": 4}, {"measurement": "Toxic Deaths", "setting": "[1]; [8]", "result": 2}, {"measurement": "Mean Score", "setting": "[1]; tumor score 1 to 10 per mouse, averaged per group", "result": "5.8 ± 2"}, {"measurement": "tolerability", "setting": "[2]; 1755 49 mg/kg i.v.", "result": "well tolerated"}, {"measurement": "Toxic Deaths", "setting": "[2]; [8]", "result": 0}, {"measurement": "Survivors", "setting": "[2]; number of mice of six, study ended Day 60", "result": 6}, {"measurement": "Stable Disease", "setting": "[2]; number of mice of six, tumor below 1.5 g at end of study", "result": 1}, {"measurement": "Partial Response", "setting": "[2]; number of mice of six, tumor smaller than on Day 1", "result": 0}, {"measurement": "Mean Score", "setting": "[2]; tumor score 1 to 10 per mouse, averaged per group (10 = complete response)", "result": "9.2 ± 0.8"}, {"measurement": "total response rate", "setting": "[3]; 1755 49 mg/kg single oral bolus Day 1, six mice, study ended Day 60", "result": 100, "unit": "%"}, {"measurement": "complete responses", "setting": "[3]; [9]", "result": "four"}, {"measurement": "partial responses", "setting": "[3]; [9]", "result": "two"}, {"measurement": "% Total Response", "setting": "[3]; [10]", "result": 100, "unit": "%"}, {"measurement": "Complete Response", "setting": "[3]; [10]", "result": 4}, {"measurement": "Partial Response", "setting": "[3]; [10]", "result": 2}, {"measurement": "Stable Disease", "setting": "[3]; [10]", "result": 0}, {"measurement": "Survivors", "setting": "[3]; [10]", "result": 6}, {"measurement": "Toxic Deaths", "setting": "[3]; [10]", "result": 0}, {"measurement": "IC50", "setting": "[4]; [11]", "result": "< 1", "unit": "nM"}]}
{"molecule": "CCOC(=O)OC1C(=O)C2(C)C(O)CC3OCC3(OC(C)=O)C2C(OC(=O)c2ccccc2)C2(O)CC(OC(=O)C(O)C(NC(=O)OC(C)(C)C)C3CC3)C(C)=C1C2(C)C", "note": "(stereo not shown) [Compound 5171]", "values": [{"measurement": "IC50", "setting": "[4]; [11]", "result": "< 1", "unit": "nM"}]}
{"molecule": "CCOC(=O)OC1C(=O)C2(C)C(O)CC3OCC3(OC(C)=O)C2C(OC(=O)c2ccccc2)C2(O)CC(OC(=O)C(O)C(NC(=O)C(C)C)c3ccco3)C(C)=C1C2(C)C", "note": "(stereo not shown) [Compound 6466]", "values": [{"measurement": "IC50", "setting": "[4]; [11]", "result": "< 10", "unit": "nM"}]}
{"molecule": "CC(=O)O[C@@]12CO[C@@H]1C[C@H](O)[C@@]1(C)C(=O)[C@H](O)C3=C(C)[C@@H](OC(=O)[C@H](O)[C@@H](NC(=O)OC(C)(C)C)c4ccccc4)C[C@@](O)([C@@H](OC(=O)c4ccccc4)[C@H]21)C3(C)C", "note": "[Docetaxel, docetaxel]", "values": [{"measurement": "MDS (n)", "setting": "[5]; Group 5: 70 mg/kg i.v. qd x 1, 7 mice, n=7, 2.0 g endpoint, study to Day 60", "result": "21.5 ± 0.5(7) days"}, {"measurement": "Complete Response", "setting": "[5]; [12]", "result": 0}, {"measurement": "Mean Score", "setting": "[5]; [12]", "result": "2 ± 0"}, {"measurement": "Partial Response", "setting": "[5]; [12]", "result": 0}, {"measurement": "Stable Disease", "setting": "[5]; [12]", "result": 0}, {"measurement": "Survivors", "setting": "[5]; [12]", "result": 0}, {"measurement": "Toxic Deaths", "setting": "[5]; [12]", "result": 0}, {"measurement": "survival extension compared to Group 1 controls", "setting": "[5]; [13]", "result": 49, "unit": "%"}, {"measurement": "MDS", "setting": "[5]; [14]", "result": 21.5, "unit": "days"}, {"measurement": "MDS (n)", "setting": "[6]; Group 5: 70 mg/kg i.v. qd x 1, 6 mice, n=6, 1.5 g endpoint, study to Day 64", "result": "45.3 ± 3.6(6) days"}, {"measurement": "Complete Response", "setting": "[6]; [15]", "result": 0}, {"measurement": "Mean Score", "setting": "[6]; [15]", "result": "2 ± 0"}, {"measurement": "Partial Response", "setting": "[6]; [15]", "result": 0}, {"measurement": "Stable Disease", "setting": "[6]; [15]", "result": 0}, {"measurement": "Toxic Deaths", "setting": "[6]; [15]", "result": 0}, {"measurement": "MDS", "setting": "[6]; i.v. qd x 1, Taxol 24 mg/kg (four mice), Taxotere 70 mg/kg, 1.5 g endpoint", "result": 45.3, "unit": "days"}, {"measurement": "IC50", "setting": "[4]; Homo sapiens, HCT-116", "result": 0.6, "unit": "nM"}, {"measurement": "MDS (n)", "setting": "[7]; Group 5: 70 mg/kg i.v. qd x 1, group of six mice, n=5, 2.0 g endpoint, study to Day 60", "result": "27.4 ± 3.5 (5) days"}, {"measurement": "Complete Response", "setting": "[7]; [16]", "result": 0}, {"measurement": "Mean Score", "setting": "[7]; [16]", "result": "2.5 ± 0.3"}, {"measurement": "Partial Response", "setting": "[7]; [16]", "result": 0}, {"measurement": "Stable Disease", "setting": "[7]; [16]", "result": 0}, {"measurement": "Survivors", "setting": "[7]; [16]", "result": 0}, {"measurement": "Toxic Deaths", "setting": "[7]; [16]", "result": 0}, {"measurement": "increase in survival / survival extension compared to Group 1 controls", "setting": "[7]; [13]", "result": 134, "unit": "%"}, {"measurement": "MDS", "setting": "[7]; [14]", "result": 27.4, "unit": "days"}]}
